Entries after “also recorded” stand apart in the source; their conditions may differ. Peptide text beside a SMILES is read from it. * marks the point of attachment. Cbz = O=C(OCc1ccccc1)*
Experiments:
[1] = test system: alpha myosin heavy chain protein; test: Cytoblot assay for alpha myosin heavy chain protein content in NRVM; type: cell-based, rat; details: MG132 100 nM, 48 hours, cytoblot (FIG. 1)
Procedure: (§1) NRVM culture. For preparations of neonatal rat ventricular myocytes (NRVMs), hearts were removed from 10-20 newborn (1-2 days old) Sprague-Dawley rats. Isolated ventricles were pooled, minced and dispersed by three 20-minute incubations at 37° C. in Ads buffer (116 mM NaCl, 20 mM HEPES, 10 mM NaH2PO4, 5.5 mM glucose, 5 mM KCl, 0.8 mM MgSO4, pH 7.4) containing collagenase Type 11 (65 units/ml, Worthington) and pancreatin (0.6 mg/ml, GibcoBRL). Dispersed cells were applied to a discontinuous gradient of 40.5% and 58.5% (v/v) Percoll (Amersham Biosciences), centrifuged, and myocytes collected from the interface layer. Myocyte preparations were pre-plated in Dulbecco's modified Eagle's medium (DMEM, Cellgro), supplemented with 10% (v/v) charcoal stripped fetal bovine serum (FBS, HyClone), 4 mM L-glutamine and 1% penicillin/streptomycin for 1 hour at 37° C. to reduce fibroblast contamination, then plated at a density of 2.5×10^5 cells per well on 6-well tissue culture plates (or 10,000 cells/well on 96-well tissue culture plates) coated with a 0.2% (w/v) gelatin solution. […]
(§2) NRVM protein quantitation by cytoblot (alpha myosin, beta myosin, MCIP1). […] Plates were read in a 96-well luminometer (Packard Fusion).

[2] = test system: β-myosin heavy chain protein; test: Cytoblot assay for beta myosin heavy chain protein content in phenylephrine-treated NRVM; type: cell-based, rat; details: phenylephrine 20 μM, MG132 100 and 1000 nM, 48 hours, cytoblot (FIG. 2)
Procedure: as §1, §2

[3] = test system: SERCA; test: Western blot analysis of NRVM: SERCA; type: cell-based, rat; details: with or without phenylephrine 20 μM, MG132 370, 1500 and 3000 nM, 48 hours, Western blot (FIG. 3)
Procedure: (§3) NRVM culture. For preparations of neonatal rat ventricular myocytes (NRVMs), hearts were removed from 10-20 newborn (1-2 days old) Sprague-Dawley rats. Isolated ventricles were pooled, minced and dispersed by three 20-minute incubations at 37° C. in Ads buffer (116 mM NaCl, 20 mM HEPES, 10 mM NaH2PO4, 5.5 mM glucose, 5 mM KCl, 0.8 mM MgSO4, pH 7.4) containing collagenase Type 11 (65 units/ml, Worthington) and pancreatin (0.6 mg/ml, GibcoBRL). Dispersed cells were applied to a discontinuous gradient of 40.5% and 58.5% (v/v) Percoll (Amersham Biosciences), centrifuged, and myocytes collected from the interface layer. […]
(§4) Western Blots. […] Protein concentrations were determined by the bicinchoninic acid method (BCA Protein Assay, Pierce) with bovine serum albumin as a standard. Equivalent quantities of protein samples (10 μg/lane) were denatured in Laemmli buffer and resolved on Tris-glycine SDS-PAGE gels (4-20% acrylamide gradient, Invitrogen). […]

[4] = test system: phospholamban (PLB); test: Western blot analysis of NRVM: phospholamban; type: cell-based, rat; details: with or without phenylephrine 20 μM, MG132 370, 1500 and 3000 nM, 48 hours, Western blot (FIG. 3)
Procedure: as §3, §4

[5] = test system: phospho-phospholamban; test: Western blot analysis of NRVM: phospho-phospholamban; type: cell-based, rat; details: with or without phenylephrine 20 μM, MG132 370, 1500 and 3000 nM, 48 hours, Western blot (FIG. 3)
Procedure: as §3, §4

[6] = test system: alpha myosin heavy chain; test: Western blot analysis of NRVM: alpha myosin heavy chain; type: cell-based, rat; details: with or without phenylephrine 20 μM, MG132 370, 1500 and 3000 nM, 48 hours, Western blot (FIG. 3)
Procedure: as §3, §4

[7] = test system: atrial natriuretic factor (ANF) secretion; test: Competitive ANF ELISA on media supernatants of phenylephrine-treated NRVM; type: cell-based; details: Rattus norvegicus, 48 h, phenylephrine 20 μM, 48 hours (FIG. 4), read-out: EC50 for suppression of PE-induced ANF secretion
Procedure: as §3
(§5) ANF and toxicity assays. ANF in media supernatants was quantitated by competitive ELISA using a monoclonal anti-ANF antibody (Biodesign) and a biotinylated ANF peptide (Phoenix Peptide). Total cellular protein was quantitated by standard Coomassie dye-binding assay; cells were lysed in protein assay reagent (BioRad) and absorbance at A595 was measured after 1 hour. Cytotoxicity was quantitated by measuring release of adenylate kinase (AK) from cultured NRVM into culture medium (ToxiLight kit, Cambrex).

[8] = test system: NRVM; test: Cytotoxicity assay (adenylate kinase release, ToxiLight) in NRVM; type: cell-based, rat; details: 48 hours, at MG132 concentrations that suppress hypertrophy (FIG. 4)
Procedure: as §3, §5

[9] = test system: modulatory calcineurin interacting protein 1 (MCIP1); test: Cytoblot assay for MCIP1 protein content in NRVM; type: cell-based, rat
Procedure: as §1, §2

[10] = test system: MCIP1 protein; test: Western blot analysis for MCIP1 protein in NRVM; type: cell-based, rat; details: range of MG132 concentrations, 48 hours (FIG. 6)
Procedure: as §3, §4

[11] = test system: total ubiquitinated protein; test: Western blot analysis for total ubiquitinated protein in NRVM; type: cell-based, rat; details: range of MG132 concentrations, 48 hours (FIG. 6)
Procedure: as §3, §4

[12] = test system: nuclear factor of activated T cells (NFAT); test: Calcineurin-dependent nuclear import of GFP-NFAT in adenovirus-infected NRVM (immunofluorescence); type: cell-based, rat; details: NRVM infected with adenovirus encoding activated calcineurin and GFP-NFAT, MG132 1 μM (FIG. 7)
Procedure: as §1, with “solution. After 24 hours in culture, myocyte preparations were transferred to serum-free maintenance medium (DMEM supplemented with 0.1% (v/v) Nutridoma (Roche), L-glutamine and penicillin/streptomycin). Where indicated, NRVM were treated with test compounds for a period of 48 hrs.” for “solution.”

[13] = test system: neonatal rat ventricular myocytes (NRVMs); details: NRVM cell culture model, Dreger 2002; cited from earlier work

Compound: CC(C)C[C@@H](C=O)NC(=O)[C@H](CC(C)C)NC(=O)[C@H](CC(C)C)NC(=O)OCc1ccccc1 [MG132] (Cbz-Leu-Leu-Leu-aldehyde)
- alpha myosin heavy chain protein content [1]: significantly increased expression of alpha myosin heavy chain protein; also recorded: increases cardiac alpha myosin heavy chain protein expression
- β-myosin heavy chain protein content [2]: effectively suppressed adrenergic agonist (phenylephrine) dependent upregulation of beta myosin heavy chain protein; also recorded: suppresses hypertrophic agonist-dependent increases in cardiac beta myosin heavy chain protein expression
- expression of SERCA protein [3]: increased in vitro expression of cardiac SERCA protein; also recorded: increases expression of SERCA
- expression of phospholamban (PLB) [4]: decreased expression of the SERCA inhibitory protein, phospholamban (PLB); also recorded: decreases expression of cardiac phospholamban
- PLB phosphorylation (phospho-phospholamban) [5]: dose-dependent increase in PLB phosphorylation; also recorded: increases expression of SERCA, alpha myosin heavy chain and phospho-phospholamban
- expression of alpha myosin heavy chain (Western blot) [6]: increases expression of SERCA, alpha myosin heavy chain
- EC50 [7]: ~20 nM
- cytotoxicity (release of adenylate kinase) [8]: no release of adenylate kinase (AK); also recorded: non-cytotoxic concentrations
- EC50 ([9]; Rattus norvegicus, 48 hours, cytoblot (FIG. 5), read-out: EC50 for induction of cardiac MCIP1 expression): 10 nM
- MCIP1 protein expression (cytoblot) ([9]; range of MG132 concentrations, 48 hours (FIG. 5)): dose-dependent increase in expression of modulatory calcineurin interacting protein 1 (MCIP1); also recorded: increases cardiac modulatory calcineurin interacting protein 1 (MCIP1) protein expression
- MCIP1 protein expression (Western blot) [10]: increases cardiac modulatory calcineurin interacting protein 1 (MCIP1) protein expression
- total ubiquitinated protein [11]: induced accumulation of ubiquitinated protein
- calcineurin-dependent nuclear import of GFP-NFAT [12]: blocked the ability of constitutively activated calcineurin to promote nuclear import of NFAT; also recorded: suppresses calcineurin-dependent nuclear import
- anti-hypertrophic effect (β-MyHC levels, cell size and morphology, BNP, sarcomeric actin) [13]: anti-hypertrophic
